{"source": "paper PMC8111499", "about": "“GW117: A novel serotonin (5‐HT2C) receptor antagonist and melatonin (MT1/MT2) receptor agonist with potential antidepressant‐like activity in rodents” (CNS Neuroscience & Therapeutics, 2021)", "biological_target": "T1, 5‐HT2C receptor from rat hippocampal membranes (Rattus norvegicus, UniProt P08909)", "T1 construct": "5‐HT2C receptor from rat hippocampal membranes (C‐D); from tissue; host or cells: rat hippocampus", "T1 sequence (P08909 33-460)": "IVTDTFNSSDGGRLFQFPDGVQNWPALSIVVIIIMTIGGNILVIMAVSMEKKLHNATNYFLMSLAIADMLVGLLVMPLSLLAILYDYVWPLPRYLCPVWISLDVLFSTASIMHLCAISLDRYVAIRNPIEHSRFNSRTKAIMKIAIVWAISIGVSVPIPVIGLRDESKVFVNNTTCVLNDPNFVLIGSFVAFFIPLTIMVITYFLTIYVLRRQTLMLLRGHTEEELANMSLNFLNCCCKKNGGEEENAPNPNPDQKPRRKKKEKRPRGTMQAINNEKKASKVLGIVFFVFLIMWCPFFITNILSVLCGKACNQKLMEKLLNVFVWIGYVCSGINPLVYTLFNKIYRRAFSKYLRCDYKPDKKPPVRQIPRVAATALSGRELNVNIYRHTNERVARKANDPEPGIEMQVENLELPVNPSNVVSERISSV", "assay": "[35S]‐GTPγS and [3H]PIP assays, blockade of 5‐HT activation", "assay_type": "biochemical", "details": "10 nM 5‐HT", "protocol": "This experiment was mentioned earlier. ^27 In short, HEK293 cell membrane stably expressing human 5‐HT2C receptors or rat hippocampal tissue membrane or MT1/MT2 receptors was re‐suspended in buffer (50 mmol/L Tris, 100 mmol/L NaCl, 5 mmol/L MgCl2·6H2O, 0.1 mmol/L EDTA‐Na2·6H2O, 0.2 mmol/L EGTA, pH 7.4) and incubated with the test compound (100 μM GDP, 0.2 nM [^35S]‐GTP, or [^3H]PIP) for 60 min at 28℃. At the end of the experiment, Whatman GF/C filters pre‐soaked with distilled water were used for rapid filtration followed by washing with 5 ml of ice‐cold Tris buffer. Determination of non‐specific binding in the presence of GTPγS and radioactivity was measured by liquid scintillation counting. Calculation of the concentration produces a half‐maximal effect (EC50) and the maximal increase above the baseline value."}
{"smiles": "[2H]C([2H])([2H])Oc1cc2c(CCNC(C)=O)cccc2cc1Cl", "note": "[GW117]", "values": [{"measurement": "blockade of activation of [35S]‐GTPγS binding and [3H]PIP released by 5‐HT", "result": "dose‐dependently blocked"}]}
